Test results as given in patent US9597332B2, “Sulfide alkyl compounds for HBV treatment” (NOVIRA THERAPEUTICS, INC., priority 2014, dated 2017).

Tested on: HBV replication in HepG2-2.2.15 cells
Test: Inhibition of HBV replication dot-blot assay
Assay type: cell-based
Settings: Hepatitis B virus, 144 h, 6 days, reduction in HBV DNA levels
Method: Compounds active in the HBV assembly assay are tested for their activity and toxicity in cellular assay. In the first anti-viral assay, the ability of compounds to inhibit HBV replication in an HBV-producing hepatoma cell line using the dot-blot method is evaluated.
(§1) Briefly, confluent monolayers of HepG2-2.2.15 cells are incubated with complete medium containing various concentrations of a test compound. Three days later, the culture medium is replaced with fresh medium containing the appropriately diluted test compound. Six days following the initial administration of the test compound, the cell culture supernatant is collected, and cell lysis is performed. The samples are applied onto Nylos membranes and DNA is immobilized to the membrane by UV cross-linking. After pre-hybridization, the HBV probe is added and the hybridization is performed overnight. The membranes are exposed to the KODAK films; antiviral activity is calculated from the reduction in HBV DNA levels (EC50). The EC50 for antiviral activity is calculated from the dose response curves of active compounds. Assay performance over time is monitored by the use of the standard positive control compounds ETV, BAY 41-4109, and HAP-1.
Selected compounds are tested for their activity and toxicity in cellular assay. In the first anti-viral assay, the ability of compounds to inhibit HBV replication in an HBV-producing hepatoma cell line using the dot-blot method is evaluated.
as §1, with “Confluent monolayers” for “Briefly, confluent monolayers”, “lysis was” for “lysis is”

SMILES	EC50 [µM]
O=C(Nc1cc(F)c(F)c(F)c1)c1ccc(F)c(S[C@H]2CCCC[C@@H](O)C2)c1 (racemic) [Example 14A, (±)-4-Fluoro-3-(((1S,3R)-3-hydroxycycloheptyl)thio)-N-(3,4,5-trifluorophenyl)benzamide]	< 10
O=C(Nc1ccc(F)c(Cl)c1)c1ccc(F)c(S[C@H]2CC[C@H](O)C2)c1 (racemic) [Example 25, (±)-N-(3-Chloro-4-fluorophenyl)-4-fluoro-3-(((1S,3S)-3-hydroxycyclopentyl)thio)benzamide]	< 10
O=C(Nc1ccc(F)c(Cl)c1)c1ccc(F)c(SC2CCC[C@H](O)C2)c1 (mixture of isomers) [Example 21, (±)-N-(3-Chloro-4-fluorophenyl)-4-fluoro-3-(((1R,3R)-3-hydroxycyclohexyl)thio)benzamide]	< 10
O=C(Nc1cc(F)c(F)c(F)c1)c1ccc(F)c(S[C@H]2CCCC[C@H](O)C2)c1 (racemic) [Example 14B, (±)-4-Fluoro-3-(((1R,3R)-3-hydroxycycloheptyl)thio)-N-(3,4,5-trifluorophenyl)benzamide]	< 10
